Results: patent US4217345A, “3-0-(β-D-Glucuronopyranosyl)-soyasapogenol B” (Otsuka Pharmaceutical Co., Ltd., priority 1978, dated 1980)
“And” between values parts separate entries of the source, which are not always exact repeats. Equal values may be shown once.

Tests used:
complement = assay: Anticomplementary activity: inhibition of hemolysis of sensitized erythrocytes (EA); type: biochemical, guinea pig; conditions: for Anticomplementary Activity (50% hemolysis inhibitory activity value): guinea pig complement serum diluted 150 times, 60 minutes
Experimental: The anticomplementary activity of the test compounds above was measured and confirmed by the testing method described in Meneki Kagaku (Immuno-Chemistry), Yuichi Yamamura et al., Ed. Asakura Shoten, Tokyo, Japan (1973) pages 830-834. Specifically, a test tube was charged with 0.5 ml of an aqueous dispersion of each of the test compounds, 0.5 ml of sensitized erythrocytes (EA) containing 1×10^8 cells/ml, 1 ml of a 5-fold diluted solution of a Veronal buffer solution containing isotonic gelatin (This 5-fold diluted solution is termed GVB^++ for brevity), and 0.5 ml of complement serum (guinea pig complement) diluted 150 times with the GVB^++. The mixture was maintained for 60 minutes. Then, 5 ml of an ice-fold physiological saline solution was added thereto and the mixture was centrifuged.

plasmin = conditions: cited from earlier work
complements = conditions: cited from earlier work
urokinase = conditions: cited from earlier work
thrombin = conditions: cited from earlier work
Kallikrein = conditions: cited from earlier work
[1] = Acute toxicity (LD50) in mice; type: in vivo; conditions: mouse, in vivo, intravenous administration
Experimental: (§1) The actute toxicity (LD50 mg/kg) of the test compounds was determined on mice by intraperitoneal administration in the case of Compound A and intravenous administration in the case of Compound B.

[2] = test system: hereditary angioneurotic edema; conditions: known complement inhibitors; cited from earlier work
Heymann-Type Nephritis = assay: Therapeutic effects on Heymann-type nephritis: proteinuria level; type: in vivo, Male Wistar rats; conditions: for Proteinuria Level: individual rat, listed as Compound of Invention
Experimental: Male Wistar rats with a body weight of 180 to 200 g were used in the test. Rat kidney cortex was extracted, and homogenized with an equal quantity by volume of a physiological saline solution. The homogenate was centrifuged at 1,500 G for 1 hour. The supernatant liquid was purified in accordance with the method of T. S. Edgington et al., Journal of Experimental Medicine, 127, 555 (1968), and mixed with Freund's complete adjuvant 37 Ra (a product of Difco Company) in a volume ratio of 0.4:1. The resulting mixture was injected intraperitoneally into isologous rats in an amount of 0.5 ml per rat. And then the same amount of its mixture was administered every 2 weeks until the proteinuria level exceeded 100 mg/day. (This period was about 6 to 8 weeks.)
Each of the test compounds was intraperitoneally administered to the rats affected with Heymann-type nephritis (with a body weight of 300 to 350 g) once a day for 7 days, and then the amount of proteinuria (mg/day) was measured in the same manner as described above. Physiological saline solution was used as a control.

[3] = test system: Nephrotoxin-Type Nephritis; assay: Therapeutic effect on nephrotoxin-type nephritis: proteinuria level; type: in vivo, male Wistar rats; conditions: for Proteinuria Level, Average: 3 mg/body i.p. for seven days; for Proteinuria Level: 3 mg/body i.p. once every 24 hours for seven days, individual rat, listed as Compound of Invention
Experimental: Rat nephrotoxin ("NT" for brevity) was obtained as described below.
Rat kidney cortex was homogenized with an equal quantity of physiological saline. The homogenized mixture was mixed with Freund's complete adjuvant (a product of Difco Company) in a volume ratio of 1:1. 2 ml of the resulting mixture was intramuscularly injected into a rabbit (body weight 3,100 g) to immunize the rabbit. A month and a half later, blood was taken from the heart of the rabbit and serum was obtained. The resulting serum was inactivated at 56° C. for 30 minutes, then salted out with a 40% saturated aqueous solution of ammonium sulfate, and fractionated. The γ-globulin (IgG) fraction was collected to obtain NT.
The therapeutic evaluation was carried out using male Wistar rats with a body weight of 150 to 160 g with three replications for each test compound. The test compound was intraperitoneally administered once every 24 hours for seven days. One hour after the administration of the test compound on the third day, the NT was applied. The NT was intravenously injected in an amount of 1 ml at a tail vein of each rat. Physiological saline solution was used as a control.
The proteinuria level (total amount excreted into the urine over a 24 hour period) was measured using turbidometry employing bovine serum albumin as a control by means of sulfosalicylic acid.

mice = assay: Acute toxicity (LD50) in mice; type: in vivo; conditions: intraperitoneal administration
Experimental: as §1

CC1(C)[C@@H](O[C@H]2O[C@H](C(=O)O)[C@@H](O)[C@H](O)[C@H]2O[C@@H]2O[C@H](C(=O)O)[C@@H](O)[C@H](O)[C@H]2O)CC[C@]2(C)[C@H]3C(=O)C=C4[C@@H]5C[C@@](C)(C(=O)O)CC[C@]5(C)CC[C@@]4(C)[C@]3(C)CC[C@@H]12 [Compound B, Glycyrrhizin]
Anticomplementary Activity (50% hemolysis inhibitory activity value) (complement): 500-1,000 γ/ml
inhibitory activity against plasmin (plasmin): inhibitory activity
inhibitory activity against complements (complements): inhibitory activity
inhibitory activity against urokinase (urokinase): inhibitory activity
inhibitory activity against thrombin (thrombin): inhibitory activity
inhibitory activity against Kallikrein (Kallikrein): inhibitory activity
LD50 [1]: > 300 mg/kg

NCCCCCC(=O)O [epsilon-aminocaproic acid]
use in the treatment of hereditary angioneurotic edema [2]: used with success

Cc1ccc(C(=O)Nc2ccc(S(=O)(=O)O)c3cc(S(=O)(=O)O)cc(S(=O)(=O)O)c23)cc1NC(=O)c1cccc(NC(=O)Nc2cccc(C(=O)Nc3cc(C(=O)Nc4ccc(S(=O)(=O)O)c5cc(S(=O)(=O)O)cc(S(=O)(=O)O)c45)ccc3C)c2)c1 [Suramin Sodium]
use in the treatment of hereditary angioneurotic edema [2]: used with success

NC[C@H]1CC[C@H](C(=O)O)CC1 [tranexamic acid]
use in the treatment of hereditary angioneurotic edema [2]: used with success

CC1(C)C[C@@H](O)[C@]2(C)CC[C@]3(C)C(=CC[C@@H]4[C@@]5(C)CC[C@H](O[C@@H]6O[C@H](C(=O)O)[C@@H](O)[C@H](O)[C@H]6O)[C@@](C)(CO)[C@@H]5CC[C@]43C)[C@@H]2C1 [Compound A, 3-O-(β-D-glucuronopyranosyl)-soyasapogenol B]
Proteinuria Level, Average (Heymann-Type Nephritis; Before Administration, 3 mg/body i.p. group, average of 3 rats (control 129)): 123 mg/day
Proteinuria Level (Heymann-Type Nephritis; Before Administration, 3 mg/body i.p. group): 117 mg/day and 129 mg/day and 123 mg/day
Proteinuria Level, Average (Heymann-Type Nephritis; Day 1, 3 mg/body i.p. once a day for 7 days, average of 3 rats (control 116)): 112 mg/day
Proteinuria Level (Heymann-Type Nephritis; Day 1, 3 mg/body i.p. once a day for 7 days): 89 mg/day and 127 mg/day and 119 mg/day
Proteinuria Level, Average (Heymann-Type Nephritis; Day 4, 3 mg/body i.p. once a day for 7 days, average of 3 rats (control 131)): 58 mg/day
Proteinuria Level (Heymann-Type Nephritis; Day 4, 3 mg/body i.p. once a day for 7 days): 42 mg/day and 75 mg/day and 58 mg/day
Proteinuria Level, Average (Heymann-Type Nephritis; Day 7, 3 mg/body i.p. once a day for 7 days, average of 3 rats (control 122)): 28 mg/day
Proteinuria Level (Heymann-Type Nephritis; Day 7, 3 mg/body i.p. once a day for 7 days): 27 mg/day and 39 mg/day and 18 mg/day
Proteinuria Level, Average (Heymann-Type Nephritis; Day 14, 3 mg/body i.p. once a day for 7 days, average of 3 rats (control 119)): 3 mg/day
Proteinuria Level (Heymann-Type Nephritis; Day 14, 3 mg/body i.p. once a day for 7 days): 3 mg/day and 17 mg/day and 9 mg/day
Proteinuria Level, Average (Heymann-Type Nephritis; Day 21, 3 mg/body i.p. once a day for 7 days, average of 3 rats (control 109)): 9 mg/day
Proteinuria Level (Heymann-Type Nephritis; Day 21, 3 mg/body i.p. once a day for 7 days): 8 mg/day and 13 mg/day and 7 mg/day
anticomplementary activity (in words) (complement): potent anticomplementary activity
Anticomplementary Activity (50% hemolysis inhibitory activity value) (complement): 5 µg/mL
Proteinuria Level, Average ([3]; Day 1, average of 3 rats (control 15)): 3.2 mg/day
Proteinuria Level ([3]; Day 1): 1.9 mg/day and 5.3 mg/day and 2.5 mg/day
Proteinuria Level, Average ([3]; Day 4, average of 3 rats (control 20)): 2.3 mg/day
Proteinuria Level ([3]; Day 4): 1.2 mg/day and 2.9 mg/day and 2.7 mg/day
Proteinuria Level, Average ([3]; Day 7, average of 3 rats (control 23)): 1.3 mg/day
Proteinuria Level ([3]; Day 7): 0.9 mg/day and 1.8 mg/day and 1.1 mg/day
Proteinuria Level, Average ([3]; Day 10, average of 3 rats (control 33)): 9.7 mg/day
Proteinuria Level ([3]; Day 10): 7 mg/day and 13 mg/day and 9 mg/day
Acute Toxicity LD50 (mice): Above 300 mg/kg
